Values of other authors in patent publication US8853454B2, “Quaternary ammonium salts as microbe inhibitors” (Mionix Corporation, priority 2006, dated 2014).

Details: in vivo

With `OCCCl` [2-chloroethanol] as the molecule, how does the oral lethal dose read?
Its oral lethal dose is 50 to 500 mg/kg.
